From patent publication US9260429B2, “Pyrido[3,4-B]indoles and methods of use” (Medivation Technologies, Inc., priority 2008, dated 2016)

Columns and labels:
[1] = target: T1, human recombinant histamine H2 receptor (Homo sapiens, UniProt P25021); assay: Histamine H2 radioligand binding ([125I]Aminopotentidine); conditions: 1 μM; inhibition of specific [125I]Aminopotentidine binding; read-out: Binding data (Percentage Inhibition) Histamine Binding (1 μM) H2
T1 construct: expressed in transfected cells; host or cells: CHO-K1 cells
T1 sequence (P25021 whole entry): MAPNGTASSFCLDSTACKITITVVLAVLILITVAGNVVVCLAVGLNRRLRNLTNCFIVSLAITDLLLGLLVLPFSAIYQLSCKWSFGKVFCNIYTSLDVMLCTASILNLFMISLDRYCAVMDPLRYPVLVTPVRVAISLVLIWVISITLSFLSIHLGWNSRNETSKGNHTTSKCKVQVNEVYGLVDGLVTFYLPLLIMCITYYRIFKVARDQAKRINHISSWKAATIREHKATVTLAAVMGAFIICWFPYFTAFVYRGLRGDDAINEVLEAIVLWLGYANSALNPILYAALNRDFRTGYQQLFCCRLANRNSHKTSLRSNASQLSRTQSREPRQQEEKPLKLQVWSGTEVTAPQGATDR
Method in brief: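 Membranes of CHO-K1 cells expressing human H2 receptor incubated with 0.1 nM [125I]aminopotentidine, 120 min, 25 °C, 50 mM phosphate pH 7.4; nonspecific binding defined with 3 μM tiotidine.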

[2] = target: T2, human recombinant adrenergic α2A receptor (Homo sapiens, UniProt P08913); assay: Adrenergic α2A radioligand binding ([3H]MK-912); conditions: 1 h; read-out: Percent Inhibition of ligand binding Adrenergic (1 μM ligand conc.) α2A
T2 construct: expressed in transfected cells; host or cells: insect Sf9 cells
T2 sequence (P08913 1-465): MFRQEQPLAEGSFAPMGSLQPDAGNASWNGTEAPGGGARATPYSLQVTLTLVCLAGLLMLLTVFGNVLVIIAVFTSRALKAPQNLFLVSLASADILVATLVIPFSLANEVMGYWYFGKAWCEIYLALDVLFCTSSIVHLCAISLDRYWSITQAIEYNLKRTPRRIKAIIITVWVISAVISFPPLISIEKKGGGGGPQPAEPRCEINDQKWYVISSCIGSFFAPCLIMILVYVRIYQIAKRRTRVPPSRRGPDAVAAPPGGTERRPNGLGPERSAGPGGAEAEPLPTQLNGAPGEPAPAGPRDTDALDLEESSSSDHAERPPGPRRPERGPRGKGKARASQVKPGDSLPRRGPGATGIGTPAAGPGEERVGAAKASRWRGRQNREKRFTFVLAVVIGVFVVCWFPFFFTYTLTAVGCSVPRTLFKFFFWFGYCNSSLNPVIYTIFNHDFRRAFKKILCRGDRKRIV
Description: To evaluate in radioligand binding assays the activity of compounds of the invention, human recombinant adrenergic α2A receptor expressed in insect Sf9 cells (Uhlen S et al. J Pharmacol Exp Ther. 271:1558, 1994) in a modified Tris-HCl buffer (50 mM Tris-HCl, pH 7.4, 12.5 mM MgCl2, 2 mM EDTA) was used. Compounds of invention were incubated with 1 nM [^3H]MK-912 for 60 minutes at 25° C. MK912 is (2S-trans)-1,3,4,5′,6,6′,7,12b-octahydro-1′,3′-dimethyl-spiro[2H-benzofuro[2,3-a]quinolizine-2,4′(1′H)-pyrimidin]-2′(3′H)-one hydrochloride Non-specific binding was estimated in the presence of 10 μM WB-4101 (2-(2,6-Dimethoxyphenoxyethyl)aminomethyl-1,4-benzodioxane hydrochloride). Receptor proteins were filtered and washed, the filters were then counted to determine [^3H]MK-912 specifically bound. Compounds were screened at 1 μM or lower, using 1% DMSO as vehicle. Biochemical assay results are presented as the percent inhibition of specific binding in Table 4.

[3] = target: T3, human recombinant serotonin (5-Hydroxytryptamine) 5-HT2A receptor (Homo sapiens, UniProt P28223); assay: Serotonin 5-HT2A radioligand binding ([3H]Ketanserin); conditions: 1 h; read-out: Percent Inhibition of ligand binding Serotonin (1 μM ligand concentration) 5-HT2A
T3 construct: expressed in transfected cells; host or cells: CHO-K1 cells
T3 sequence (P28223 whole entry): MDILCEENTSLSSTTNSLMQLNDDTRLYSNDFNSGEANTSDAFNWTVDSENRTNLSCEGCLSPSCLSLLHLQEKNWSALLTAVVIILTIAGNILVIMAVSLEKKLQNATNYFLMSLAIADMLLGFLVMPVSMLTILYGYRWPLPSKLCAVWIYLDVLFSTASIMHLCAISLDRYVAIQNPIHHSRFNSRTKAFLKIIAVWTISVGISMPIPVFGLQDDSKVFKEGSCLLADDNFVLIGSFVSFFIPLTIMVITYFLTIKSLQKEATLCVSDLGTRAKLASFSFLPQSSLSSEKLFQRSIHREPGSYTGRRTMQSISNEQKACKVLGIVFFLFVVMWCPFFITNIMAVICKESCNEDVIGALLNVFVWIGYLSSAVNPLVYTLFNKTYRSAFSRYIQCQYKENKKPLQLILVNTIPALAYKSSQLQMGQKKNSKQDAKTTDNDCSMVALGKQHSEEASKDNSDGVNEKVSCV
Method in brief: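 Membranes from CHO-K1 cells expressing the receptor, in 50 mM Tris-HCl pH 7.4, incubated 60 min at 25° C with 0.5 nM [3H]Ketanserin; 1 μM Mianserin defines non-specific binding. Filtration and counting; values are % inhibition of specific binding at 1 μM or lower, 1% DMSO.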

[4] = target: T4, human recombinant serotonin (5-Hydroxytryptamine) 5-HT6 receptor (Homo sapiens, UniProt P50406); assay: Serotonin 5-HT6 radioligand binding ([3H]LSD); conditions: 2 h; read-out: Percent Inhibition of ligand binding Serotonin (1 μM ligand concentration) 5-HT6
T4 construct: expressed in transfected cells; host or cells: human HeLa cells
T4 sequence (P50406 whole entry): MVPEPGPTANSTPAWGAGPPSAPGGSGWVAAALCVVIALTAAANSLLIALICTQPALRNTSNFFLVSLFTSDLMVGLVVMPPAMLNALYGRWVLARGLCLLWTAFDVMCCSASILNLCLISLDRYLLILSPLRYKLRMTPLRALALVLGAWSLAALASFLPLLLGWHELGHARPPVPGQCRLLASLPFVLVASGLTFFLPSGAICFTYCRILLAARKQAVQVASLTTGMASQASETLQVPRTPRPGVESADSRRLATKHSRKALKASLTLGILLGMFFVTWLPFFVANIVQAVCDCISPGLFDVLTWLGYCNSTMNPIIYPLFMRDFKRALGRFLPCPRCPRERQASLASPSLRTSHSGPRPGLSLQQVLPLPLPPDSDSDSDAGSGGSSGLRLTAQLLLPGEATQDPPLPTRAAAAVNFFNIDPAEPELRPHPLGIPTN
Method in brief: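 Human 5-HT6 receptor expressed in HeLa cells, in Tris-HCl pH 7.4 with 150 mM NaCl, ascorbic acid and BSA. Compounds at 1 μM or lower (1% DMSO) incubated 120 min at 37° C with 1.5 nM [3H]LSD. Non-specific binding defined with serotonin; filter counting gives % inhibition of specific binding.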

Compound	inhibition at 1 µM [1]	inhibition at 1 µM [2]	inhibition at 1 µM [3]	inhibition at 1 µM [4]
CN1CCc2c(n(CC(O)c3ccccc3F)c3ccc(Cl)cc23)C1 (stereo not drawn) [Compound 59, 2-(6-chloro-2-methyl-3,4-dihydro-1H-pyrido[3,4-b]indol-9(2H)-yl)-1-(2-fluorophenyl)ethanol]	28%	91%	80%	60%
CN1CCc2c(n(CC(=O)Nc3ccc(F)cc3)c3ccc(Cl)cc23)C1 [Compound 15, 2-(6-chloro-1,2,3,4-tetrahydro-2-methylpyrido[3,4-b]indol-9-yl)-N-(4-fluorophenyl)acetamide]	-3%	15%	6%	-2%
CC(C)CCN(C)C(=O)Cn1c2c(c3cc(Cl)ccc31)CCN(C)C2 [Compound 14, 2-(6-chloro-1,2,3,4-tetrahydro-2-methylpyrido[3,4-b]indol-9-yl)-N-isopentyl-N-methylacetamide]	12%	19%	27%	12%
CN1CCc2c(n(CC(O)c3ccccc3)c3ccc(Cl)cc23)C1 (stereo not drawn) [Compound 71]	11%	88%	87%	66%
C/C(=C\n1c2c(c3cc(C)ccc31)CCN(C)C2C)c1ccc(Cl)cc1 (stereo not drawn) [Compound 161, 9-(2-(4-chlorophenyl)prop-1-enyl)-1,2,6-trimethyl-2,3,4,9-tetrahydro-1H-pyrido[3,4-b]indole]	82%	52%	96%	75%
CCC1c2c(c3cc(Cl)ccc3n2/C=C(\C)c2ccc(Cl)cc2)CCN1C (stereo not drawn) [Compound 100, 6-chloro-9-(2-(4-chlorophenyl)prop-1-enyl)-1-ethyl-2-methyl-2,3,4,9-tetrahydro-1H-pyrido[3,4-b]indole]	39%	56%	87%	23%
C/C(=C/n1c2c(c3cc(Cl)ccc31)CCN(C)C2C)c1ccccc1F (stereo not drawn) [Compound 167]	51%	92%	88%	55%
Cc1ccc2c(c1)c1c(n2CCc2ccc(C(F)(F)F)nc2)CN(C)CC1 [Compound 5, 9-(2-(6-(trifluoromethyl)pyridin-3-yl)ethyl)-2,3,4,9-tetrahydro-2,6-dimethyl-1H-pyrido[3,4-b]indole]	36%	74%	51%	6%
CN1CCc2c(n(CCCc3ccccc3)c3ccc(Cl)cc23)C1 [Compound 29, 6-chloro-2,3,4,9-tetrahydro-2-methyl-9-(3-phenylpropyl)-1H-pyrido[3,4-b]indole]	60%	96%	83%	62%
